Here are results for six compounds from patent US10213413B2 (priority 2014, dated 2019).

The target of data set [1] is T1, N-NTD (Human respiratory syncytial virus A, UniProt P03418).
T1 construct: N N-terminal region (N-NTD, residues 31 to 252); made in house; host or cells: E. coli BL21(DE3)
Briefly: Isothermal titration calorimetry. Conditions: 18° C.; for Kd: 20 mM Tris-HCl pH 8, 150 mM NaCl, 5% Ethanol, 30 μM N-NTD, read-out: Kd (ITC); for ΔH (binding enthalpy, ITC) / −TΔS (entropic contribution, ITC): 1:1 interaction model. The format is binding, respiratory syncytial virus (RSV). The method, then:
ITC experiments were performed using the high precision VP-ITC system (MicroCal, GE Healthcare) and quantified with the Origin7 software provided by the manufacturer. All molecules were dissolved in 20 mM Tris-HCl, pH 8, 150 mM NaCl, 5% Ethanol and the binding enthalpies were measured by injecting the M76 or M61 solutions at 1.5 mM into calorimetric cell containing 30 μM N-NTD solution. Titrations were performed at 18° C. with 7 μl injections of M76 or M61 ligands every 350s. Heat signals were corrected for the heats of dilution and normalized to the amount of compound injected. Binding stoichiometries, enthalpy values and equilibrium dissociation constants were determined by fitting the corrected data to a 1:1 interaction model using the Origin7 software (OriginLab).
In parallel, the inventors investigated the properties of binding abilities of the di-substituted M76- and unsubstituted M61 to N-NTD by ITC. The purified N-NTD domain was loaded into the calorimeter cell and titrated with the compounds.

The target of data set [2] is T2, P-CTD/N-NTD interaction (Human respiratory syncytial virus A, UniProt P03418).
T2 construct: N N-terminal region (N-NTD, residues 31 to 252); made in house; host or cells: E. coli BL21(DE3)
T2 sequence (P03418 31-252): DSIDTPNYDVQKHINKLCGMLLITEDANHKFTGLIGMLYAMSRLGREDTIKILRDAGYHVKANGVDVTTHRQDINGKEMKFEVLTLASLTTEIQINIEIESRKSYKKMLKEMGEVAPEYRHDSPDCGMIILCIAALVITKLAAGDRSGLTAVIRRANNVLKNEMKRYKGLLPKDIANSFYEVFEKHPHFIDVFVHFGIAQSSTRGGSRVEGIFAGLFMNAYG
Briefly: Surface plasmon resonance competition assay (N-NTD binding to captured GST-P-CTD). More on the design: species or system respiratory syncytial virus (RSV). As to conditions: 25° C., 20 mM TrisHCl pH 8, 150 mM NaCl, N-NTD 20 μM; read-out: Ki (inhibition of P-CTD/N-NTD interaction, SPR). As to the method:
The assays were carried out at 25° C. in a buffer 20 mM TrisHCl, pH 8, 150 mM NaCl.
A goat anti-GST antibody (Biacore GST Capture Kit) was covalently coupled to a CMS sensorchip, using a Biacore 2000 instrument and the Amine Coupling Kit (GE Healthcare), reaching an immobilization density of around 10000 resonance units (RU; 1RU≈1 pg.mm-2). This surface was used to capture tightly GST-fused P-CTD to a density of 1200-1300 RU, or GST (800 RU) as a control. N-NTD (20 μM), alone or mixed and equilibrated for over 2 hours with the different inhibitor candidates (concentration range: 5-750 μM), was then injected over the GST-P-CTD and GST surfaces for one minute at a flow rate of […]. After each injection, the interaction buffer was flowed on the surface until all the N-NTD molecules dissociated (taking advantage of the transient nature of the N-NTD/P-CTD interaction). At the end of the series, the surfaces were regenerated with a 2-min 10 mM glycine-HCl (pH 1.5) wash and two 1-min washes with 0.05% SDS and 20 mM NaOH. The real-time interaction profiles were double referenced using the Scrubber 2.0 software (BioLogic Software), that is both the signals from the reference surface (with GST captured on the anti-GST antibody) and from blank experiments using the compounds alone were subtracted. The steady-state SPR responses (Req) were plotted against the compound concentration C and fitted using the BIAevaluation 4.1 software (GE Healthcare), according to the following equation:
[formula] where is the concentration of N-NTD (20 μM) and R0 the steady-state SPR response for N-NTD alone, allowing to determine the inhibition constants Ki for each compound. Isothermal Titration Calorimetry
SPR signals are proportional to the molecular weight of the analytes and therefore, given the small molecular weight of selected compounds, direct binding between N-NTD and BPdC would have too small signals on the used instrument. Instead, the inventors resorted to indirect competition assays to assess the effect of BPdC on the interaction between surface-bound P-CTD and N-NTD. The inventors first characterized by SPR the specific interactions between P-CTD in fusion with GST (GST-P-CTD) and N-NTD. GST-P-CTD was immobilized on an anti-GST antibody surface and serial dilutions of N-NTD were injected. The interaction between the two domains was transient, with a very fast dissociation rate (koff>1 s^−1) and a Kd of 30 μM. Competition experiments were then performed with the BPdC compounds. […] Both compounds carried a specific Cl substituent in ortho on the benzyl ring, but addition of another Cl atom in para position, on M76, somewhat enhanced inhibition. […] The inhibitory properties of the compounds were directly related to their affinities for N-NTD with M72<M61<M68<M81<M76.
A general note: SPR reads the build-up and loss of mass on a sensor chip optically.

Data set [3] addresses T3, N-NTD (N N-terminal region, residues 31 to 252) (Human respiratory syncytial virus A, UniProt P03418).
T3 construct: N N-terminal region (N-NTD, residues 31 to 252); made in house; host or cells: E. coli BL21(DE3)
In words: NMR chemical shift perturbation titration (1H,15N-HSQC), dissociation constants. The format is binding, respiratory syncytial virus (RSV). As to conditions: 50 μM 15N-labeled N-NTD, two-site fast exchange model, 1:1 stoichiometry. The method, then:
N-NTD samples uniformly labeled with stable isotopes for NMR measurements were produced in minimal M9 medium supplemented with 1 g/L ^15NH4Cl and 3 g/L unlabeled or ^13C-glucose. The protocols were adapted from rich medium: an initial preculture of 15 mL in LB medium was used to inoculate a 500 mL M9 culture grown to saturation, and 500 mL of fresh M9 medium were added before induction. Purification was carried out as described above and followed by a final dialysis step to exchange the sample into NMR buffer (20 mM MES pH 6.5, 250 mM NaCl, 1.5 mM TCEP). A U-^13C, ^15N, 70%-^2H labeled N-NTD sample was prepared by starting from a 100 mL preculture in LB medium, used to inoculate 1 L of unlabeled M9. […]
Chemical shift perturbation (CSP) experiments were carried out with 50 μM U-^15N labeled N-NTD on a 700 MHz Bruker Avance III spectrometer equipped with a TXI probe by adding increasing amounts of M61, M68, M72, M76 and M81 from concentrated stock solutions (25, 10 or 5 mM) in ethanol. […] Dissociation constants were determined for a given residue, assuming a two-site fast exchange model with a 1:1 stoichiometry, by fitting the chemical shift difference (δ−δfree) as a function of molar ratios in Origin 7 software (OriginLab).
Combined ^1H and ^15N CSPs were calculated from: Δδ^1H^15N=√{square root over ((δ1H−δ1H^free)^2+(δ15N−δ15N^free)^2/100)}. […]

Data set [4] relates to HEp-2 cells. Briefly: CellTiter-Glo Luminescent cell viability assay (cytotoxicity). The format is cell-based. Conditions: 48 h. As to the method:
Compound M76b was solubilized at 10 mM in 100% v/v DMSO and further diluted in water to 1 mM, then serially diluted threefold in minimum essential medium (MEM) without phenol red (Gibco) to a final concentration of 5 nM. DMSO dilutions in the same range were also used as controls. HEp-2 cells (ATCC number CCL-23) were seeded at 5×10^4 cells per well in 96-well plates the day before. Infection was carried out with 500 pfu of rHRSV-mCherry in MEM without phenol red. 2 h after infection, the medium was changed to MEM with 2% fetal calf serum and without phenol red. Compound dilutions were pre-incubated with viral suspensions for 5 min at 37° C. before addition on cell monolayers in the 96-well plates. After treatment with compound M76b in DMSO or with DMSO alone, plates were incubated at 37° C. and 5% CO2 for 48 h.
Cytotoxicity was assayed with the CellTiter-Glo Luminescent cell viability assay (Promega) after 48 h of incubation with DMSO alone or threefold dilutions of compound M76 in DMSO from 1 mM to 12 μM.

Data set [5] concerns rHRSV-mCherry. The format is cell-based, recombinant human RSV. Conditions: 48 h, HEp-2 cells. As to the method: DMSO dilutions in the same range were also used as controls. HEp-2 cells (ATCC number CCL-23) were seeded at 5×10^4 cells per well in 96-well plates the day before. Infection was carried out with 500 pfu of rHRSV-mCherry in MEM without phenol red. 2 h after infection, the medium was changed to MEM with 2% fetal calf serum and without phenol red. Compound dilutions were pre-incubated with viral suspensions for 5 min at 37° C. before addition on cell monolayers in the 96-well plates.
Fluorescence, expressed in relative fluorescence units, was measured using a spectrofluorimeter (Tecan infinite M200PRO) with excitation and emission wavelengths of 580 and 620 nm, respectively. Non-infected HEp-2 cells were used a standard for fluorescence background level.

SMILES strings stand for the structures. Read-outs that look alike come from different tables or passages of the source.

T1 sequence (P03418 31-252): as above
T3 sequence (P03418 31-252): as above

As a reminder, the Kd is a measure of binding affinity in units of concentration. As for `O=C(O)c1cc(C(=O)O)n(Cc2ccccc2)n1` [M61, 1-(Benzyl)-pyrazole-3,5-dicarboxylate], in data set [1], the dissociation constant (Kd) stood at 510 ± 170 µM; the “ΔH (binding enthalpy, ITC)” value is -6.42 ± 2.42 kcal/mol; the “−TΔS (entropic contribution, ITC)” value is 2.2 ± 1.8 kcal/mol. In data set [2], the Ki was 893 ± 86 µM.

`O=C(O)c1cc(C(=O)O)n(Cc2ccc(Br)cc2)n1` [M68, 1-(4-bromoBenzyl)-pyrazole-3,5-dicarboxylate]: the Ki in data set [2] came to 610 ± 82 µM.

As for `O=C(O)c1cc(C(=O)O)n(Cc2ccc(F)cc2)n1` [M72, 1-(4-fluoroBenzyl)-pyrazole-3,5-dicarboxylate], the dissociation constant Kd in data set [3] amounted to 680 µM. The Ki in data set [2] stood at 1660 ± 290 µM.

For `O=C(O)c1cc(C(=O)O)n(Cc2ccc(Cl)cc2Cl)n1` [M76, 1-(2,4-dichloroBenzyl)-pyrazole-3,5-dicarboxylate], the Kd in data set [3] turned out to be 20 µM. Also, in data set [1], the Kd turned out to be 48 ± 8 µM; the “ΔH (binding enthalpy, ITC)” value is -11.0 ± 3.6 kcal/mol; the “−TΔS (entropic contribution, ITC)” value turned out to be 5.4 ± 3.8 kcal/mol. For the same compound, the Ki in data set [2] worked out at 155 ± 25 µM.

Consider `CC(=O)OCOC(=O)c1cc(C(=O)OCOC(C)=O)n(Cc2ccc(Cl)cc2Cl)n1` [M76b], for which the values for the cell survival result in data set [4] (111 μM) and in data set [4] (333 μM) were “more than 95%” and 25%, respectively. Also, the relative fluorescence in data set [5] (111 μM, relative to control without M76b and DMSO) is on record as 40%; in data set [5] (333 μM, relative to control without M76b and DMSO), “less than 20%”; in data set [5] (concentrations under 12 μM), “above 80%”.

Regarding `O=C(O)c1cc(C(=O)O)n(Cc2ccccc2Cl)n1` [M81, 1-(2-chloroBenzyl)-pyrazole-3,5-dicarboxylate], the Ki in data set [2] was determined as 247 ± 39 µM.
